For one experiment, the target named is T1, human orexin-2 receptor (Homo sapiens, UniProt O43614).
T1 construct: expressed in transfected cells; host or cells: CHO cells (G418 selection)
T1 sequence (O43614 1-444): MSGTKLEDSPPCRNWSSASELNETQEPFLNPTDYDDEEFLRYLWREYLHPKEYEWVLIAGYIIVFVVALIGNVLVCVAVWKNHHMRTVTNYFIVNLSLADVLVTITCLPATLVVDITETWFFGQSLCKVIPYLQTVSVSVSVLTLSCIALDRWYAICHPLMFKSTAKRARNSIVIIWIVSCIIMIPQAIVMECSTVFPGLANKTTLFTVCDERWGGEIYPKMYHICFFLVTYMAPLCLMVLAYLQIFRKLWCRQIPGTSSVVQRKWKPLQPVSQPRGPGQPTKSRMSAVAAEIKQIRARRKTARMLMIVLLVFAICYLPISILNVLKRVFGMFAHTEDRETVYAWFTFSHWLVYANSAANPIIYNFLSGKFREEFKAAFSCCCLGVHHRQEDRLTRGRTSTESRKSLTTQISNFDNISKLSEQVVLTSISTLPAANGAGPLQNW
The experiment can be described thus: FLIPR intracellular calcium assay, orexin receptor antagonistic activity (OX2). It counts as cell-based. Conditions: CHO cells expressing human orexin-2 receptor; agonist 3 nM orexin-A; normalized to on-plate reference; * geomean n = 5, *2 geomean n = 2. In outline: (§1)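 CHO cells expressing human OX1 or OX2 receptor loaded with fluo-4 AM, then antagonist preincubated 10 min before 3 nM orexin-A. FLIPR peak calcium fluorescence compared with agonist-plus-vehicle response. IC50 normalized to an on-plate reference compound.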

For another experiment, the target named is T2, human orexin-1 receptor (Homo sapiens, UniProt O43613).
T2 construct: expressed in transfected cells; host or cells: CHO cells (G418 selection)
T2 sequence (O43613 1-425): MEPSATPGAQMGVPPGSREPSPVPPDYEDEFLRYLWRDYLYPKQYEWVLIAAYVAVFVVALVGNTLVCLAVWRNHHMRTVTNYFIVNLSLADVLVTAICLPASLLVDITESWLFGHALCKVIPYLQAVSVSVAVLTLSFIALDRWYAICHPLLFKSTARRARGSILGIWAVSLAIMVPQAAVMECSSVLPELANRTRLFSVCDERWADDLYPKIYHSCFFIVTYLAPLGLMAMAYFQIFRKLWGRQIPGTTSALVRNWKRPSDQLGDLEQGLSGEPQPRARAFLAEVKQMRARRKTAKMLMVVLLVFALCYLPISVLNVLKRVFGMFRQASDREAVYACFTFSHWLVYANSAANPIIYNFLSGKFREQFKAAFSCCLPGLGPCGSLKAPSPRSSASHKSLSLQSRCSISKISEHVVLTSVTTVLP
Description: FLIPR intracellular calcium assay, orexin receptor antagonistic activity (OX1). It counts as cell-based. Particulars: CHO cells expressing human orexin-1 receptor; agonist 3 nM orexin-A; normalized to on-plate reference; * geomean n = 5, *2 geomean n = 2. In outline: as §1

With `COc1cccc(OC)c1C1OC(C)(C)C(=O)N1Cc1ccc(OCC2CC2)cc1` (centres unmarked) [Example 78, 3-(4-Cyclopropylmethoxy-benzyl)-2-(2,6-dimethoxy-phenyl)-5,5-dimethyl-oxazolidin-4-one], the half-inhibitory concentration (IC50) on human orexin-2 receptor amounted to 620 nM; at human orexin-1 receptor it was 472 nM.
Turning to `CCOc1ccc(CN2C(=O)[C@@H](C)O[C@@H]2c2c(OC)cccc2OC)cc1` [Example 79, 2-(2,6-Dimethoxy-phenyl)-3-(4-ethoxy-benzyl)-(r)-5-methyl-oxazolidin-4-one], the IC50 on human orexin-2 receptor amounted to 864 nM; on human orexin-1 receptor it was 830 nM.
As to `CCOc1ccc(CN2C(=O)C(C)(C)OC2c2c(OC)cccc2OC)cc1` (centres unmarked) [Example 80, 2-(2,6-Dimethoxy-phenyl)-3-(4-ethoxy-benzyl)-5,5-dimethyl-oxazolidin-4-one], the IC50 was 1940 nM on human orexin-2 receptor and 139 nM at human orexin-1 receptor.
Taken in the same sequence, the figures for `Cc1cccc(C)c1C1OC(C)(C)C(=O)N1Cc1ccc(OC(F)(F)F)c(Cl)c1` (centres unmarked) [Example 81, 3-(3-Chloro-4-trifluoromethoxy-benzyl)-2-(2,6-dimethyl-phenyl)-5,5-dimethyl-oxazolidin-4-one] were 88 nM and 920 nM.
`CC1(C)OC(c2c(F)cccc2F)N(Cc2ccc(OC(F)(F)F)c(Cl)c2)C1=O` (centres unmarked) [Example 82, 3-(3-Chloro-4-trifluoromethoxy-benzyl)-2-(2,6-difluoro-phenyl)-5,5-dimethyl-oxazolidin-4-one]: the figures for the IC50 at human orexin-2 receptor and at human orexin-1 receptor were 110 nM and 336 nM, respectively.
As for `COc1cccc(C)c1C1OC(C)(C)C(=O)N1Cc1ccc(OC(F)(F)F)c(Cl)c1` (centres unmarked) [Example 83, 3-(3-Chloro-4-trifluoromethoxy-benzyl)-2-(2-methoxy-6-methyl-phenyl)-5,5-dimethyl-oxazolidin-4-one], the IC50 on human orexin-2 receptor turned out to be 69 nM; at human orexin-1 receptor, 133 nM.
As to `COc1cccc(F)c1C1OC(C)(C)C(=O)N1Cc1ccc(Oc2ccccc2)cc1` (centres unmarked) [Example 84, 2-(2-Fluoro-6-methoxy-phenyl)-5,5-dimethyl-3-(4-phenoxy-benzyl)-oxazolidin-4-one], the concentration for half-maximal inhibition (IC50) at human orexin-2 receptor was determined as 46 nM; on human orexin-1 receptor, 421 nM.
On to `COc1cccc(Cl)c1C1OC(C)(C)C(=O)N1Cc1ccc(Oc2ccccc2)cc1` (centres unmarked) [Example 85, 2-(2-Chloro-6-methoxy-phenyl)-5,5-dimethyl-3-(4-phenoxy-benzyl)-oxazolidin-4-one], for which the IC50 at human orexin-2 receptor is 37 nM; on human orexin-1 receptor, 204 nM.
On the same counts, the results for `COc1cccc(C(F)(F)F)c1C1OC(C)(C)C(=O)N1Cc1ccc(Oc2ccccc2)cc1` (centres unmarked) [Example 86, 2-(2-Methoxy-6-trifluoromethyl-phenyl)-5,5-dimethyl-3-(4-phenoxy-benzyl)-oxazolidin-4-one] are 65 nM and 2180 nM.
On the same counts, the results for `COc1cccc(OC)c1C1OC(C)(C)C(=O)N1Cc1ccc(-c2ccccc2)cc1` (centres unmarked) [Example 87, 3-Biphenyl-4-ylmethyl-2-(2,6-dimethoxy-phenyl)-5,5-dimethyl-oxazolidin-4-one] are 1090 nM and 64 nM.
On to `COc1cccc(OC)c1C1OC(C)(C)C(=O)N1Cc1ccc(SC(F)(F)F)cc1` (centres unmarked) [Example 88, 2-(2,6-Dimethoxy-phenyl)-5,5-dimethyl-3-(4-trifluoromethylsulfanyl-benzyl)-oxazolidin-4-one], for which the IC50 on human orexin-2 receptor was found to be 298 nM; at human orexin-1 receptor it was 120 nM.
As for `COc1cccc(OC)c1C1OC(C)(C)C(=O)N1Cc1ccc(Oc2ccccc2)nc1` (centres unmarked) [Example 89, 2-(2,6-Dimethoxy-phenyl)-5,5-dimethyl-3-(6-phenoxy-pyridin-3-ylmethyl)-oxazolidin-4-one], the half-inhibitory concentration (IC50) worked out at 212 nM on human orexin-2 receptor and 139 nM at human orexin-1 receptor.
For the compound `COc1cccc(OC)c1C1OC(C)(C)C(=O)N1Cc1ccc(Oc2ccccc2)cn1` (centres unmarked) [Example 90, 2-(2,6-Dimethoxy-phenyl)-5,5-dimethyl-3-(5-phenoxy-pyridin-2-ylmethyl)-oxazolidin-4-one], the IC50 at human orexin-2 receptor came out at 236 nM; on human orexin-1 receptor it was 413 nM.

A word on the IC50: it is the concentration that gives 50% inhibition.

Values taken from patent US8329706B2, “Oxazolidinone derivatives” (Actelion Pharmaceuticals Ltd., priority 2009, dated 2012).
